These results are taken from publication PMC5814047, “Peptidic inhibitors of insulin-degrading enzyme with potential for dermatological applications discovered via phage display” (PLoS ONE, 2018).

The target of the assay is T1, IDE (Homo sapiens, UniProt P14735).
T1 construct: made in house; host or cells: bacteria
T1 sequence (P14735 1-1019): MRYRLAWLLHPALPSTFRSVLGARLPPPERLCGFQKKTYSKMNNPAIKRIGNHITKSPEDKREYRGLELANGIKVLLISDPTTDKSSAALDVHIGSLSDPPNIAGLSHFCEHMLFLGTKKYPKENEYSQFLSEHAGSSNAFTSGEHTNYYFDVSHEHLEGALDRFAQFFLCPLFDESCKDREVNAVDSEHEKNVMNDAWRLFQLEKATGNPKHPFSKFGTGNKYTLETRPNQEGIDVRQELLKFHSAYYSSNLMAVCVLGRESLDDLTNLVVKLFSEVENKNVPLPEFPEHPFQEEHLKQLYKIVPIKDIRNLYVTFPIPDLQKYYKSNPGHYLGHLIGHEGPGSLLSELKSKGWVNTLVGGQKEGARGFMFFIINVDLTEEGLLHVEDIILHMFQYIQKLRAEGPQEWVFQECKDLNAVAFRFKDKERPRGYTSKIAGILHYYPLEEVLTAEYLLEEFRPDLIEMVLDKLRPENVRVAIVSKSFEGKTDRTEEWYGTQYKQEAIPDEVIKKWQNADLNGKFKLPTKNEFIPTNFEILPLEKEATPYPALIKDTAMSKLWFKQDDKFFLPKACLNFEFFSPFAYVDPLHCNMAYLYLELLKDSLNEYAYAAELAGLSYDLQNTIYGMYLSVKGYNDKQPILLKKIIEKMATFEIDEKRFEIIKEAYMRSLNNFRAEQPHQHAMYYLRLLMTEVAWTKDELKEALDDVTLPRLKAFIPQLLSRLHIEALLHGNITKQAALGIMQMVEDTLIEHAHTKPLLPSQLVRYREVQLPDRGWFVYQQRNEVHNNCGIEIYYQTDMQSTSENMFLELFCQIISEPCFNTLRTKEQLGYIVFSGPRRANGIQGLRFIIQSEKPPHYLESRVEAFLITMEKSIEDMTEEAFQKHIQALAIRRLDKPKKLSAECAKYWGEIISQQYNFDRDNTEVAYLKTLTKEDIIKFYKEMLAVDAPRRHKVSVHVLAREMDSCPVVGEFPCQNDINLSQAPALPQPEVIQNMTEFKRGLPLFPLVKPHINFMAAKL
The assay is described as follows: biochemical. As to conditions: for IC50 <10 uM?: initial test at 10 uM using insulin (100 nM); for remaining activity at 0.016 µM: Cmpd 0.016 uM; for remaining activity at 0.08 µM: Cmpd 0.08 uM; for remaining activity at 0.4 µM: Cmpd 0.4 uM; for remaining activity at 2 µM: Cmpd 2 uM; for remaining activity at 10 µM: Cmpd 10 uM. In a few lines:
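Bacterially expressed recombinant human IDE (1 nM) in PBS with 0.05% BSA. Substrates: FRET1 (5 μM; fluorescence, ex 340/em 420 nm), fluoresceinated biotinylated amyloid β-protein (500 nM; fluorescence polarization, ex 488/em 525 nm), or recombinant human insulin (50 nM; ELISA).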

Where [1] appears, read: insulin ELISA, Runs 1-3, read-out: Percent Activity (normalized source data).
[2] abbreviates: substrate recombinant human insulin 50 nM, Ki from IC50 with the Cheng-Prusoff equation.
[3] abbreviates: insulin ELISA assay, dose-response, Replicates 1-3, read-out: IC50s, individual replicates.
Setting [4] is: insulin ELISA assay, dose-response, N=3, read-out: IC50s, Mean.

Where “and” joins values, the source holds several entries; their conditions need not be identical. Equal entries are not always repeated. Where two headings read alike, the source gives them in different places. Bridge positions count the residues as written; N and C are the ends. Ends that are not written are not given here. Peptide text beside a SMILES is read from it. Some results are limits rather than exact numbers.

`CC(C)C[C@H](NC(=O)[C@H](CO)NC(=O)[C@@H](N)CCC(N)=O)C(=O)N1CCC[C@H]1C(=O)N[C@@H](Cc1c[nH]c2ccccc12)C(=O)N[C@H]1CSSC[C@@H](C(=O)N[C@H](C(=O)N[C@H](C(N)=O)[C@@H](C)O)C(C)C)NC(=O)[C@H](Cc2c[nH]cn2)NC(=O)[C@@H]2CCCN2C(=O)[C@H](Cc2ccc(O)cc2)NC1=O` [P12-3A] (H-QSLPWCYPHCVT-NH2; disulfide 6-10 (inferred)): the “IC50 <10 uM?” value is on record as “YES”. For the setting “dose-response of P12-3A against insulin degradation by IDE, Fig 3B”, this molecule returned a Hill slope of 0.91 ± 0.15. In addition, under setting [1], the remaining activity at 0.016 µM stood at 90.2%, the remaining activity at 0.08 µM worked out at 84.4%, the remaining activity at 0.4 µM came out at 76.5% and the remaining activity at 2 µM turned out to be 62.5%. Further, the remaining activity at 10 µM under setting [1] worked out at 47.7%. For the same molecule, the remaining activity at 50 µM (insulin ELISA, Cmpd 50 uM, Runs 1-3, read-out: Percent Activity (normalized source data)) came to 28.6%. In addition, for the setting “resynthesized P12-3A 0.0316228 uM, individual replicates, read-out: Percent Activity (normalized source data)”, the remaining activity at 0.0316228 µM came out at 98.5%.
With `CC(C)C[C@H](NC(=O)[C@H](CO)NC(=O)[C@@H](N)CCC(N)=O)C(=O)N1CCC[C@H]1C(=O)N[C@@H](Cc1c[nH]c2ccccc12)C(=O)N[C@H]1CSSC[C@@H](C(=O)N[C@H](C(=O)N[C@H](C(=O)O)[C@@H](C)O)C(C)C)NC(=O)[C@H](Cc2c[nH]cn2)NC(=O)[C@@H]2CCCN2C(=O)[C@H](Cc2ccc(O)cc2)NC1=O` [P12-3] (H-QSLPWCYPHCVT-OH; disulfide 6-10 (inferred)), the “IC50 <10 uM?” value is given as “YES”. Further, under setting [1], the remaining activity at 0.016 µM worked out at 66.3%, the remaining activity at 0.08 µM came out at 72.2%, the remaining activity at 0.4 µM was found to be 62.9% and the remaining activity at 2 µM turned out to be 64.4%. Under setting [1], the remaining activity at 10 µM was 37.6%.
Consider QSLPWCYP-NH2 [P12-3B], for which the IC50 (from initial test at 10 uM using insulin (100 nM), read-out: IC50 (summary of results, listed in Table 1)) was more than 10000 nM. Also, the Ki under setting [2] was more than 10000 nM.
For the molecule VHWDFRQWWQPS [P12-1], the “IC50 <10 uM?” value is listed as “YES”. Also, the Ki (as restated in the Discussion, read-out: Ki (insulin)) amounted to 800 nM. For the same molecule, the IC50 under setting [3] is 1580 nM and 1470 nM and 1720 nM. Also, the IC50 under setting [4] is 1590 nM. The Ki under setting [2] was 800 ± 40 nM.
Regarding VHWDFRQWWQPS-NH2 [P12-1A], the “IC50 <10 uM?” value was “YES”. Under setting [3], the IC50 is 3220 nM and 1930 nM and 2380 nM. Besides, the IC50 under setting [4] was determined as 2510 nM. Further, the Ki under setting [2] was determined as 1300 ± 200 nM.
As to WSPISGKFFQRF [P12-4], the “IC50 <10 uM?” value is on record as “YES”. The IC50 under setting [3] was 1900 nM and 3160 nM and 3780 nM. For the same molecule, under setting [4], the IC50 was determined as 2950 nM. The Ki under setting [2] is 1500 ± 300 nM.
